In patent US10294202B2, “Pyrrolidinones as herbicides” (FMC Corporation, priority 2013, dated 2019):

Columns and labels:
[1] = test system: rice, transplanted; experiment: Test F flood (paddy) test; format: in vivo, Oryza sativa cv. Japonica—M202; conditions: 21 d, scale 0-100
Method in brief: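 Visual injury ratings (0 no effect to 100 complete control) were taken 21 d after treatment against untreated controls. Compounds went directly into paddy water held 3 cm above soil, applied at the 2.0–2.5-leaf stage in sterilized Tama silt loam under a 30/27 °C, 16-h greenhouse regime.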

[2] = test system: field violet; experiment: Test D pre-/postemergence herbicide test; format: in vivo, Viola arvensis; conditions: for Plant response rating: Field Violet, scale 0 to 100; for Plant response rating, Field Violet: scale 0 to 100 (0 no effect, 100 complete control)
Method in brief: (§1)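 Visual 0–100 ratings (0 = no effect, 100 = complete control) versus controls, made 7 to 21 days after treatment in a controlled growth environment. Test chemicals in surfactant-containing non-phytotoxic solvent were applied preemergence to silt loam-sown seeds and postemergence to plants 2–18 cm tall.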

[3] = test system: ragweed; experiment: Test E preemergence herbicide test; format: in vivo, Ambrosia elatior; set-up: key: 0 = no effect, 100 = complete control
From the text: (§2) Seeds of plant species selected from corn (Zea mays), soybean (Glycine max), velvetleaf (Abutilon theophrasti), lambsquarters (Chenopodium album), wild poinsettia (Euphorbia heterophylla), pigweed, palmer (palmer pigweed, Amaranthus palmeri), waterhemp (common waterhemp, Amaranthus rudis), surinam grass (Brachiaria decumbens), crabgrass, large (large crabgrass, Digitaria sanguinalis), crabgrass, Brazil (Brazilian crabgrass, Digitaria horizontalis), panicum, fall (fall panicum, Panicum dichotomiflorum), foxtail, giant (giant foxtail, Setaria faberii), foxtail, green (green foxtail, Setaria viridis), goosegrass (Eleusine indica), johnsongrass (Sorghum halepense), ragweed (common ragweed, Ambrosia elatior), barnyardgrass (Echinochloa crus-galli), sandbur (southern sandbur, Cenchrus echinatus), arrowleaf […] rhombifolia), ryegrass, Italian (Italian ryegrass, Lolium multiflorum), dayflower, VA (Virginia dayflower, Commelina virginica), field bindweed (Convolvulus arvensis), morningglory (Ipomoea coccinea), nightshade (eastern black nightshade, Solanum ptycanthum), kochia (Kochia scoparia), nutsedge, yellow (yellow nutsedge, Cyperus esculentus), cocklebur (common cocklebur, Xanthium strumarium), smartweed (ladysthumb smartweed, Polygonum Persicaria) and beggarticks (hairy beggarticks, Bidens pilosa), were planted into a silt loam soil and treated preemergence with test chemicals formulated in a non-phytotoxic solvent mixture which included a surfactant. Treated plants and controls were maintained in a greenhouse for 21 days, after which time all species were compared to controls and visually evaluated. Plant response ratings, summarized in Table E, are based on a scale of 0 to 100 where 0 is no effect and 100 is complete control. A dash (-) response means no test result.

[4] = test system: pigweed, palmer; experiment: Test E preemergence herbicide test; format: in vivo, Amaranthus palmeri; set-up: key: 0 = no effect, 100 = complete control
Method in brief: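 Response is a 0–100 visual rating against controls (100 = complete control), taken 21 days after preemergence treatment of seeded silt loam soil held in a greenhouse.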

[5] = test system: blackgrass; experiment: Test D pre-/postemergence herbicide test; format: in vivo, Alopecurus myosuroides; conditions: for Plant response rating: Blackgrass, scale 0 to 100; for Plant response rating, Blackgrass: scale 0 to 100 (0 no effect, 100 complete control)
Method in brief: as §1

[6] = test system: field bindweed; experiment: Test E preemergence herbicide test; format: in vivo, Convolvulus arvensis; set-up: key: 0 = no effect, 100 = complete control
From the text: as §2

O=C1NCC(c2ccc(F)c(F)c2)C1C(=O)Nc1cccc(F)c1F (centres unmarked) [Compound 17, N-(2,3-difluorophenyl)-4-(3,4-difluorophenyl)-2-oxo-3-pyrrolidinecarboxamide]
Plant response rating, Rice, Transplanted ([1]; 125 g ai/ha): 10
Plant response rating, Rice, Transplanted ([1]; 250 g ai/ha): 10
Plant response rating, Rice, Transplanted ([1]; 500 g ai/ha): 10
Plant response rating, Rice, Transplanted ([1]; 1000 g ai/ha): 10
Plant response rating, Rice, Transplanted ([1]; 2000 g ai/ha): 10
Plant response rating ([2]; Postemergence, 16 g ai/ha): 0
Plant response rating ([2]; Postemergence, 31 g ai/ha): 0
Plant response rating ([2]; Postemergence, 62 g ai/ha): 0
Plant response rating ([2]; Postemergence, 125 g ai/ha): 0
Plant response rating ([2]; Postemergence, 250 g ai/ha): 10
Plant response rating, Ragweed ([3]; 16 g ai/ha): 0
Plant response rating, Ragweed ([3]; 31 g ai/ha): 0
Plant response rating, Ragweed ([3]; 62 g ai/ha): 0
Plant response rating, Ragweed ([3]; 125 g ai/ha): 0
Plant response rating, Ragweed ([3]; 250 g ai/ha): 0
Plant response rating, Pigweed, Palmer ([4]; 16 g ai/ha): 0
Plant response rating, Pigweed, Palmer ([4]; 31 g ai/ha): 0
Plant response rating, Pigweed, Palmer ([4]; 62 g ai/ha): 0
Plant response rating, Pigweed, Palmer ([4]; 125 g ai/ha): 0
Plant response rating, Pigweed, Palmer ([4]; 250 g ai/ha): 0
Plant response rating ([5]; Postemergence, 16 g ai/ha): 0
Plant response rating ([5]; Postemergence, 31 g ai/ha): 0
Plant response rating ([5]; Postemergence, 62 g ai/ha): 0
Plant response rating ([5]; Postemergence, 125 g ai/ha): 0
Plant response rating ([5]; Postemergence, 250 g ai/ha): 0
Plant response rating, Field Bindweed ([6]; 16 g ai/ha): 0
Plant response rating, Field Bindweed ([6]; 31 g ai/ha): 0
Plant response rating, Field Bindweed ([6]; 62 g ai/ha): 0
Plant response rating, Field Bindweed ([6]; 125 g ai/ha): 0
Plant response rating, Field Bindweed ([6]; 250 g ai/ha): 0

O=C1NC[C@H](c2cccc(C(F)(F)F)c2)[C@H]1C(=O)Nc1ccccc1F [Compound 204, (3R,4S)—N-(2-fluorophenyl)-2-oxo-4-[3-(trifluoromethyl)phenyl]-3-pyrrolidinecarboxamide]
Plant response rating, Rice, Transplanted ([1]; 125 g ai/ha): 0
Plant response rating, Rice, Transplanted ([1]; 250 g ai/ha): 0
Plant response rating, Rice, Transplanted ([1]; 500 g ai/ha): 0
Plant response rating, Field Violet ([2]; Preemergence, 62 g ai/ha): 15
Plant response rating, Field Violet ([2]; Preemergence, 125 g ai/ha): 25
Plant response rating, Field Violet ([2]; Preemergence, 31 g ai/ha): 10
Plant response rating ([2]; Preemergence, 250 g ai/ha): 25
Plant response rating, Ragweed ([3]; 31 g ai/ha): 0
Plant response rating, Ragweed ([3]; 62 g ai/ha): 0
Plant response rating, Ragweed ([3]; 125 g ai/ha): 0
Plant response rating, Ragweed ([3]; 250 g ai/ha): 0
Plant response rating, Pigweed, Palmer ([4]; 31 g ai/ha): 0
Plant response rating, Pigweed, Palmer ([4]; 62 g ai/ha): 0
Plant response rating, Pigweed, Palmer ([4]; 125 g ai/ha): 0
Plant response rating, Pigweed, Palmer ([4]; 250 g ai/ha): 0
Plant response rating, Blackgrass ([5]; Preemergence, 62 g ai/ha): 10
Plant response rating, Blackgrass ([5]; Preemergence, 125 g ai/ha): 40
Plant response rating, Blackgrass ([5]; Preemergence, 31 g ai/ha): 5
Plant response rating ([5]; Preemergence, 250 g ai/ha): 65
Plant response rating, Field Bindweed ([6]; 31 g ai/ha): 0
Plant response rating, Field Bindweed ([6]; 62 g ai/ha): 0
Plant response rating, Field Bindweed ([6]; 125 g ai/ha): 0
Plant response rating, Field Bindweed ([6]; 250 g ai/ha): 30

O=C1NC[C@H](c2cccc(C(F)(F)F)c2)[C@H]1C(=O)Nc1cccc(F)c1F [Compound 206]
Plant response rating, Rice, Transplanted ([1]; 64 g ai/ha): 0
Plant response rating, Rice, Transplanted ([1]; 125 g ai/ha): 0
Plant response rating, Rice, Transplanted ([1]; 250 g ai/ha): 10
Plant response rating, Rice, Transplanted ([1]; 500 g ai/ha): 40
Plant response rating, Field Violet ([2]; Preemergence, 62 g ai/ha): 35
Plant response rating, Field Violet ([2]; Preemergence, 125 g ai/ha): 35
Plant response rating, Field Violet ([2]; Preemergence, 31 g ai/ha): 15
Plant response rating ([2]; Preemergence, 250 g ai/ha): 25
Plant response rating, Ragweed ([3]; 31 g ai/ha): 0
Plant response rating, Ragweed ([3]; 62 g ai/ha): 0
Plant response rating, Ragweed ([3]; 125 g ai/ha): 0
Plant response rating, Ragweed ([3]; 250 g ai/ha): 75
Plant response rating, Pigweed, Palmer ([4]; 31 g ai/ha): 0
Plant response rating, Pigweed, Palmer ([4]; 62 g ai/ha): 0
Plant response rating, Pigweed, Palmer ([4]; 125 g ai/ha): 0
Plant response rating, Pigweed, Palmer ([4]; 250 g ai/ha): 0
Plant response rating, Blackgrass ([5]; Preemergence, 62 g ai/ha): 70
Plant response rating, Blackgrass ([5]; Preemergence, 125 g ai/ha): 85
Plant response rating, Blackgrass ([5]; Preemergence, 31 g ai/ha): 30
Plant response rating ([5]; Preemergence, 250 g ai/ha): 90
Plant response rating, Field Bindweed ([6]; 31 g ai/ha): 20
Plant response rating, Field Bindweed ([6]; 62 g ai/ha): 20
Plant response rating, Field Bindweed ([6]; 125 g ai/ha): 30
Plant response rating, Field Bindweed ([6]; 250 g ai/ha): 50
